Results from a melting point compilation (Tetko et al.; mined from patent text by program, amines drawn as free bases though some values may be those of a salt).

| SMILES | melting point |
| --- | --- |
| COc1cc(CSc2ccccn2)nc(N)n1 | 115 to 116 °C |
| C#CCCOc1cc(NC(=O)CC(CC(=O)O)C(F)(F)F)c(F)cc1Cl (stereo unspecified) | 136 to 137 °C |
| Cc1cc(Oc2cccc(C(F)(F)F)c2)nn1C(=O)Nc1ccc(Cl)cc1 | 73 to 74 °C |
| CN(C)n1cc(C(=O)O)c(=O)c2cc(F)c(Cl)cc21 | 255 to 256 °C |
| CC(C)(C)OC(=O)N[C@@H](CCCCN=C=O)C(=O)N1CC(F)(F)C(F)(F)C1 | 68 to 70 °C |
| CC(C)(C)c1ccc(NC(=O)N2CCCC3(CC2)CC(c2ccccc2)=NO3)cc1 (stereo unspecified) | 137 to 142 °C |
| CCOC(=O)Cc1c(C(=O)OCC)[nH]c(C)c1-c1nc(-c2ccc(OC)cc2)c(-c2ccc(OC)cc2)[nH]1 | 186 °C |
| CCn1nc(C(C)(C)C)cc1C(=O)Nc1ccc(F)c(C(=O)N(C)C)c1 | 93 to 95 °C |
| Cc1ccc(S(=O)(=O)n2c(I)cc3c(Br)ccnc32)cc1 | 140 to 143 °C |
| CCCOc1ccc(CCCOc2ccc3c(c2)C=C(C(=O)O)CCS3(=O)=O)cc1 | 168 to 170 °C |
| Cc1c(Cc2ccncc2)nnc(Nc2cccc(Cl)c2)c1C | 164 to 167 °C |
| COC(=O)[C@@H]1CCCN1C(=O)c1ccc(OC)c(O)c1[N+](=O)[O-] | 108 to 110 °C |
| N#Cc1cc(N2C(=O)CC(C(F)(F)F)CC2=O)c(F)cc1Cl | 210 to 212 °C |
| CCOC(=O)c1cnc(N(Cc2cc(Br)ccc2OCc2ccccc2)C(=O)OC(C)(C)C)cn1 | 116 to 117 °C |
| CNc1cc(CCN)ccc1OC | 90 to 92 °C |
| NC(=O)c1snc(Cl)c1Cl | 156 to 158 °C |
| CC(C)(CO)CCCCCCCCCC(C)(C)CO | 52 to 54 °C |
| O=C(NC1CCC1)c1cc(Nc2nc(N3CCCC3c3ccccn3)nc3ccoc23)[nH]n1 (stereo unspecified) | 250 °C |
| CCCN(Cc1ccc(-c2ccccc2-c2nnn[nH]2)cc1)c1nc(C)nnc1C(=O)OCC | 120 to 122 °C |
| COc1cc(N)ccc1OCCCN1CCN(c2ccccc2)CC1 | 112 to 113 °C |
| O=[N+]([O-])c1ccc2c(c1)NP(=O)(N(CCCl)CCCl)OC2 (stereo unspecified) | 138 to 142 °C |
| O=C(NOCC(O)CN1CCCCC1)Nc1cccc(Cl)c1 (stereo unspecified) | 117 to 118 °C |
| CO[C@H](C(=O)O)c1cccc([N+](=O)[O-])c1 | 112 °C |
| CC(=NN)c1ccc2c(c1)C(C(Cl)(Cl)Cl)OC(C(Cl)(Cl)Cl)O2 (stereo unspecified) | 159 °C |
| CCNS(=O)(=O)c1ccc(N2N=C(C)C(=CNc3ccccc3OCC)C2=O)cc1 | 238 °C |
| COc1cc(OC)c2c(=O)[nH]c(-c3ccc(CCC(=O)O)cc3)nc2c1 | 251 °C |

| SMILES | melting point |
| --- | --- |
| CCCc1nnc(Cc2ccc(N)cc2)o1 | 60 to 61 °C |
| CN1CCN(c2ccc(C(=O)NCCCCCCCCCO[N+](=O)[O-])cn2)CC1 | 90 to 92 °C |
| CN1CCc2nc3cc(Cl)ccc3c(Nc3ccccc3)c2C1 | 197 to 198 °C |
| Cn1cc(C(=O)O)c(Nc2ccc(F)cc2F)cc1=O | 253 to 255 °C |
| CC(C)CCN1C(=O)C(NC(=O)n2ccnc2)C(=O)N(c2ccccc2)c2ccccc21 (stereo unspecified) | 62 to 65 °C |
| CCCCCCCCCC(=O)Nc1ccc(S(=O)(=O)Nc2nnc(CC(=O)OCC)s2)cc1 | 89 to 90 °C |
| CC(C)SC1NC(=O)C1NC(=O)COc1ccccc1 (stereo unspecified) | 128 to 130 °C |
| COc1ncncc1C1c2ccccc2OCOc2cc(F)ccc21 (stereo unspecified) | 144 to 148 °C |
| CNC(=O)C=C1CSc2c(C(=O)OC(C)C)c(C)cn21 | 173 to 175 °C |
| CC(=O)c1ccc2c(c1)C=CC(=CCl)CO2 | 85 to 90 °C |
| O=C(NC1CCN(C(=O)OCCC2(C(=O)NCC(F)(F)F)c3ccccc3-c3ccccc32)CC1)c1ccccc1Oc1ccccc1 | 68 to 73 °C |
| CCn1c(C)c(C2(c3ccc(OC)cc3OC)OC(=O)c3cc(N(C)C)ccc32)c2ccccc21 (stereo unspecified) | 215 to 217 °C |
| COc1cc(C(C)C)c2c(c1)S(=O)(=O)N(COc1cc(C(F)(F)F)nn1-c1ccc([N+](=O)[O-])cc1)C2=O | 185 to 187 °C |
| CC(=O)Nc1ccc(-c2cc3cccc(C(=O)OCCN4CCCCC4)c3o2)cc1 | 155 to 157 °C |
| Cc1nc(Cl)c2c(C)cn(-c3c(Cl)cc(Br)cc3Br)c2n1 | 157 to 159 °C |
| O=c1cc(CO)oc2ccccc12 | 165 to 167 °C |
| O=c1cnc(-c2cc(Br)cc(-c3ccsc3)c2)nn1CC(F)(F)F | 180 to 182 °C |
| Cc1ccc(-c2cc(C(F)(F)F)nn2-c2ccc(S(=O)(=O)NOC(C)C(=O)O)cc2)cc1 (single isomer, unassigned; (-)) | 158 to 160 °C |
| CCOc1ccccc1CNC(=O)c1ccc2cnccc2n1 | 79 to 80 °C |
| CC1SC(=O)NN=C1c1ccc2c(c1)C(=Cc1ccccn1)C(=O)N2 (stereo unspecified) | 296 °C |
| Cc1c(NC(=O)c2ccc(-c3ccc4c(c3)CCO4)cc2F)ccc2cc(CN3CCCCC3)cnc12 | 202 to 203 °C |
| CCNc1nc(Cl)cc(NC2CC2)n1 | 86 to 88 °C |
| O=C(c1nc(-c2ccccc2)nc2ccccc12)N1CCCC(CO)C1 (stereo unspecified) | 142 °C |
| CN=C(NS(=O)(=O)c1ccc(C)cc1)N1CCc2nc(N)sc2C1 | 206 to 208 °C |
| CCCn1c(=O)c2[nH]c(/C=C/c3ccc(O)c(OC)c3)nc2n(CCC)c1=O | 243 to 245 °C |
| COP(=O)(OC)[C@H](C)NC(=O)[C@H](C)N | 103 to 106 °C |

| SMILES | melting point |
| --- | --- |
| COc1cc(C)cc2ncc(Br)n12 | 105 to 106 °C |
| CC(=O)N(C)CC#CCn1ccnc1 | 113 to 115 °C |
| CC(=O)NC(C)c1ccc(CN2CCN(c3ncccn3)CC2)cc1 (stereo unspecified) | 124 to 126 °C |
| O=C(N[C@H](Cc1ccc(C(F)(F)F)cc1)[C@@H](O)c1ccc(F)cc1)c1ccc2ccccc2c1 (racemic) | 174 to 175 °C |
| CCc1nc2csc(C(=S)OC)c2[nH]1 | 140 to 142 °C |
| CCOC(=O)c1cn(C2CC2)c2c(C)c(N3CCN(C(=O)OCC)CC3)c(F)cc2c1=O | 200 to 202 °C |
| O=C(NCC1Cc2cccc(-c3ccc(Cl)cc3Cl)c2O1)OCc1ccccc1 (stereo unspecified) | 87 to 89 °C |
| CCc1cc(/C=C/C(N)=O)ccc1Cl | 152 to 153 °C |
| CC(C)(Oc1ccc(OCCOc2cc(C(C)(C)C)c(O)c(C(C)(C)C)c2)cc1)C(=O)O | 124 °C |
| CC(C)(C)OC(=O)c1nc(-c2ccc([N+](=O)[O-])cc2)[nH]c1-c1ccncc1 | > 280 °C |
| COc1ccc(OC)c(-c2cc3c(Nc4cccc(Cl)c4)ncnc3[nH]2)c1 | 267 to 268 °C |
| O=C(Cc1ccccc1)c1cc(O)c(O)c([N+](=O)[O-])c1 | 181 to 182 °C |
| CC(C)NC(=O)c1cc(-n2c(=O)cc(C(F)(F)F)n(C)c2=O)c(F)cc1Cl | 146 to 149 °C |
| COC(F)(F)c1nc2nc(C)c(F)cc2cc1C(=O)C1C(=O)CCCC1=O | 143 to 146 °C |
| CC(CO)NC(=O)COc1cc(Cl)ccc1C(=O)NCCN1CCN(Cc2ccc(Cl)c(Cl)c2)CC1 (stereo unspecified) | 115 to 116 °C |
| O=C(O)c1ccc(-c2cn(-c3ccc(OC(F)(F)F)cc3)cn2)cc1 | 230 °C |
| COC(=O)c1nc2c(NC(=O)C(C)(C)C)cccn2c1C | 132 °C |
| Cc1cc2c(-c3ccccc3)c(CC(=O)O)n(C)c(=O)c2cc1C | 217 to 220 °C |
| O=c1[nH]c2ccccc2n1CCCN1CC=C(n2c(=O)[nH]c3ccccc32)CC1 | 207 °C |
| COc1cccc2c1OC1C3CCC4(C(=O)N(CC5CC5)CCC214)C(C(C)(O)C(C)(C)C)C3 (stereo unspecified) | 205 to 206 °C |
| CCSc1ccc(Oc2ccc(C(=O)c3ccccc3)cc2)nc1C#N | 88 to 90 °C |
| CCCCCCCCC/C=C/C(=O)N[C@H]1CCCNC(=O)C1 | 87 to 88 °C |
| CCc1[nH]n(C2CCCC2)c2nc(Oc3ccccc3)nc(=O)c1-2 | 175 to 177 °C |
| COc1cccc(C2(c3cccc(OC)c3)CC2(C)C=O)c1 (stereo unspecified) | 122 to 123 °C |
| CCc1nn2ccc3oc(C)cc3c2c1CC#N | 156 to 157 °C |
| CCC(CC)Nc1cc(C)nc(Oc2c(C)cc(Cl)cc2C)c1NC(C)=O | 161 to 164 °C |

| SMILES | melting point |
| --- | --- |
| COc1cc(N)c(Cl)cc1C(=O)NCC1CCN(CCCCCC(=O)c2ccc(O)cc2O)CC1 | 96 to 99 °C |
| Nc1ccn(/C=C2/CC2(CO)CO)c(=O)n1 | 250 to 253 °C |
| COc1ccc(N2CCOCC2)c2sc(NC(=O)N3C[C@@H]4CC[C@H]3C4)nc12 | 149 °C |
| CCCc1nc(NC(C)=O)nc(N2CCOCC2)n1 | 141 to 142 °C |
| CCOC(=O)c1ccncn1 | 36.8 °C |
| O=C(O)Cc1ccc2c(c1)sc1cccc(Cl)c12 | 203 to 206 °C |
| O=C1Cc2ccc3ccccc3c2OC1C(=O)c1cccc(Cl)c1 (stereo unspecified) | 206 to 208 °C |
| Cn1nc(-c2ccc(F)cc2)c(-c2ccncc2)c1C=CCc1ccccc1 | 136 to 137 °C |
| CN(C)CCOc1ccc(CN2C(=O)C3(COc4cc5c(cc43)OCCO5)c3ccccc32)cc1 (stereo unspecified) | 77 to 79 °C |
| COc1nc2ccccc2nc1N(C)C(=O)N1CCN(c2cc(C)cc(C)c2)CC1 | 142 to 144 °C |
| [N-]=[N+]=NC1CC(n2cc(I)c(=O)[nH]c2=O)OC1CO (stereo unspecified) | 126 to 130 °C |
| CCN1C(=O)C(C(=O)c2ccco2)c2cc(Cl)cnc21 (stereo unspecified) | 162 to 163 °C |
| CCCOc1ccccc1-c1nc2nc(NCCOC)ncc2c(=O)[nH]1 | 193 to 194 °C |
| O=C(CCl)Nc1c(Cl)cccc1SSc1cccc(Cl)c1NC(=O)CCl | 188 to 189 °C |
| COc1nc2cc(Br)c3c(c2nc1OC)CCN(C)C3 | 162 °C |
| CCCCCCCN(CC1(c2ccccc2)CCCC1)C(=O)Nc1ccc(F)cc1F | 88 to 90 °C |
| CCCCCc1ccc(-c2ncc(C#N)c(Cl)n2)cc1 | 96 to 96.3 °C |
| CC(C)(C)OC(=O)N1CCN(CCOC(N)=O)CC1 | 135 to 136 °C |
| CC(=O)SCC(C(=O)NCCc1ccncc1)C(F)(F)F (stereo unspecified) | 87 to 89 °C |
| Cc1c(C(=O)C2C(=O)CCCC2=O)ccc(S(C)(=O)=O)c1S(C)(=O)=O | 301 to 302 °C |
| Cc1cccc(O)c1S(N)(=O)=O | 126 °C |
| Cc1nn(-c2ccccn2)c2[nH]c3c(c(=O)c12)CCCC3 | 172 to 173 °C |
| CCOC(=O)c1nnc(-c2cc3sc(C)c(N(C)S(=O)(=O)c4cccs4)c3[nH]2)s1 | 209 °C |
